Experimental findings from PMC3519673, “Discovery of indole tetrafluorophenoxymethylketone-based potent novel small molecule inhibitors of caspase-3” (Organic and Medicinal Chemistry Letters, 2012) are described below.

The target of one data set is T1, caspase-3 (Homo sapiens, UniProt P42574).
T1 construct: purchased Sigma-Aldrich C1224
T1 sequence (P42574 29-175 limits assumed): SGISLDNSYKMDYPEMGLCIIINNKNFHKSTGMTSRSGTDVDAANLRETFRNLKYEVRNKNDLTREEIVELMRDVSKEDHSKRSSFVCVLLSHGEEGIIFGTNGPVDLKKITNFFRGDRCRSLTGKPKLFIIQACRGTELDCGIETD
T1 sequence (P42574 176-277 limits assumed): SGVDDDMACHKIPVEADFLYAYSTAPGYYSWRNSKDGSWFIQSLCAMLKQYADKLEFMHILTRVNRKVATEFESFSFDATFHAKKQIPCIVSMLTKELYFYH
Kind of data set: Caspase-3 fluorometric inhibition assay (AC-DEVD-AMC substrate). Format: biochemical. As to conditions: 10 µM AC-DEVD-AMC, 10 U caspase-3. As to the method:
Fluorescence measurements were done using VICTOR2V 96/384 multilabel plate reader (PerkinElmer Life Sciences, MA, USA) at λex = 360 nm and λem = 460 nm top readout (ex, excitation; em, emission) in Corning black 96-well flat bottom plates. The enzyme activity was measured at 30°C after 30 min. Trans-epithelial resistance (TEER) measurements (for monolayer integrity) were made using instrument from World Precision Instrument (Florida, USA). HPLC (1100 series, Agilent Technologies Inc., CA, USA) was performed on reverse phase column (Zorbax Eclipse XDB C18, 150 × 4.6 mm, 5 μm). LC-MS/MS was performed in multiple reaction monitoring mode using Applied Biosystems API 3200 (Chromos, Singapore) coupled to Agilent Technologies 1100 series HPLC on a reverse phase column (Zorbax Eclipse XDB C18, 50 × 4.6 mm, 5 μm).
Screening of compounds was carried out at two different concentrations (1 and 10 μM). […]
The ability of NCEs to inhibit the activity of human recombinant caspases as well as other proteases was determined using a standard fluorometric microplate assay as described in [1, 10]. […] Activities of the other caspases were determined similarly using the corresponding fluorogenic substrates: 50 U of caspase-1 and 10 μM N-acetyl-Tyr-Val-Ala-Asp-7-amido-4-methylcoumarin. […]

The target in another data set is T2, Thrombin (Homo sapiens, UniProt P00734).
T2 construct: purchased Enzyme Research Laboratories HT1002a
Kind of data set: Thrombin counterscreen assay. As to conditions: read-out: % inhibition at 10 µM Thrombin; compound 10 µM. Format: biochemical. As to the method: (§1) Screening of compounds was carried out at two different concentrations (1 and 10 μM). Selected compounds were subjected to dose response determination in semi-log concentration (serial threefold dilutions) at constant DMSO concentration of 1% with highest compound concentration at 100 μM. Counterscreening against some of proteases, permeability, and CYP450 inhibition studies was carried out for few selected compounds at 10 μM concentration.
(§2) Thrombin assay reaction mixture (100 μl) contained 140 ng of enzyme and 100 μM of substrate (Boc-Glu-Ala-Arg-AMC) in Tris–HCl buffer pH 8.5. Cathepsin-B assay buffer contained 50 mM MES, 0.01% CHAPS, 100 μM of substrate (Z-Phe-Arg-AMC HCl), and 0.1 U of enzyme. […] The enzyme activities were monitored (ex/em 355/460) as a time-course measurement of the increase in fluorescence signal from fluorescently labeled peptide substrate for 120 min at room temperature. Percent inhibition calculation was calculated using following equation:
(§3) Percent inhibition=100−[RFU in test wells/RFU in basal control wells×100]
Background: Counterscreens check selectivity or assay interference.

The target of the next data set is T3, caspase-1 (Homo sapiens, UniProt P29466).
T3 construct: purchased Enzo Life Sciences, Inc. BML-AK701
T3 sequence (P29466 120-297 limits assumed): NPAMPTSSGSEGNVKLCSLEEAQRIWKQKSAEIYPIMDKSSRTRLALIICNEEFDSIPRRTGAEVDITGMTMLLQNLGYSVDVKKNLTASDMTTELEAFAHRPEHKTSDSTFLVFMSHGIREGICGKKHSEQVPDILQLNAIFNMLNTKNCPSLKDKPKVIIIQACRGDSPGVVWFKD
T3 sequence (P29466 317-404 limits assumed): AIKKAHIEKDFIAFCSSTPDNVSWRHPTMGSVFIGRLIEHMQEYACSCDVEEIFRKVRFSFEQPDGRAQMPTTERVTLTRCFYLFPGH
The data set can be described thus: Caspase-1 counterscreen assay. Format: biochemical. The settings on record: read-out: % inhibition at 10 µM Caspase-1; compound 10 µM. As to the method:
as §1
The ability of NCEs to inhibit the activity of human recombinant caspases as well as other proteases was determined using a standard fluorometric microplate assay as described in [1, 10]. The assay buffer contained 25 mM sodium HEPES, 50 mM KCl, 0.1% CHAPS, and 1 mM β-mercaptoethanol, pH7.4. To a reaction mixture (100 μL) containing the above buffer, 10 μM AC-DEVD-AMC and 10 U caspase-3 were added in a black 96-well microplate. Activities of the other caspases were determined similarly using the corresponding fluorogenic substrates: 50 U of caspase-1 and 10 μM N-acetyl-Tyr-Val-Ala-Asp-7-amido-4-methylcoumarin.
as §3

For a further data set, the target named is T4, Cathepsin-B (Homo sapiens, UniProt P07858).
T4 construct: purchased Sigma-Aldrich C0150
Kind of data set: Cathepsin-B counterscreen assay. Format: biochemical. As to conditions: read-out: % inhibition at 10 µM Cathepsin-B; compound 10 µM. As to the method:
as §1, §2, §3

The subject of data set [1] is Jurkat (human T-cell leukemia) cell line. Kind of data set: Anti-apoptotic assay using Jurkat T-cells (staurosporine-induced cell death, resazurin). The class given is cell-based. As to conditions: compound 10 µM, staurosporine 100 nM, 48 h. As to the method:
The anti-apototic assay was done as described in [10]. Briefly, Jurkat (human T-cell leukemia) cell line (ATCC) was cultured in RPMI-1640 medium with L-glutamine and supplemented with 10% fetal bovine serum and antibiotic solution. Cells were grown at 37°C in 5% CO2 and 95% air environment at 100% humidity. Cells were plated in 45 μL/well of serum-free medium at 2.5 × 10^5 cells/mL and incubated for 1 h before compound addition. Compound stock solutions were diluted with growth medium and added to the cells to obtain desired concentration. One percent DMSO was used for control wells (without the addition of compounds). […] Cells were further incubated for 120 min, and the fluorescence was measured using the Wallac Victor2V plate reader (PerkinElmer Life Sciences) at 531/589 nm ex/em wavelengths. The percent protection from induced apoptosis was calculated using the following equation: […]
where ΔFl denotes the difference in resazurin fluorescence measured at point 0 and after 120-min incubation with the cells; subscripts t, s, and n are fluorescence in the presence of a test compound + staurosporine, staurosporine alone, and no staurosporine, respectively.
Protection against cellular apoptosis was determined using staurosporine as apoptotic inducer in Jurkat cells (human T-cell leukemia), as described in the ‘Methods’ section. […]
On the technique in general: Alamar Blue is a resazurin reagent that responds to reducing activity.

Data set [2] in a line: Kinetic aqueous solubility (shake flask, 96-well). The settings on record: pH 7.4, aqueous buffer, kinetic from dmso stock. Format: physicochemical. As to the method:
After 16 h of incubation, the supernatant was subjected for analysis.

Another data set can be described thus: Microsomal stability. The class given is in vitro ADME. The settings on record: mouse liver microsomes, 1 µM, NADPH and UDPGA. Here is the method:
Mouse liver microsomes (in-house prepared) and pooled human liver microsomes (BD Gentest, CA, USA) were incubated with 1-μM test compounds at 37°C for 15 and 60 min using NADPH and UDPGA as co-factors. The reaction was stopped by the addition of cold acetonitrile, precipitated protein was removed, and the supernatants were analyzed.

Data set [3] in a line: In vivo pharmacokinetic experiment in mice. The settings on record: mouse, plasma, male NMRI mice. Here is the method:
Pharmacokinetic profiling was carried out using oral and intravenous route (IV) dosing in male NMRI mice. […] The plasma samples were collected at different time points until 8 hr and were stored frozen at −80°C until analysis. Quantitative bio-analysis of the drugs in the plasma samples was done using an LC-MS/MS. Plasma samples were analyzed following protein precipitation of plasma with acetonitrile containing internal standards.
Curve fitting was performed with Prism 5.1 software (GraphPad Software Inc., San Diego, CA) using built-in equation describing corresponding data models. All the other data were mentioned as mean ± standard deviation of triplicates values. PK parameters were determined using WinNonlin 5.2 software.
Compounds were administered to male NMRI mice either as 1 mg/kg intravenous bolus in 1% (v/v) DMA, 10% (w/v) HP-b-CD in normal saline, or orally by gavage at 5 mg/kg in 1% (v/v) DMA, 1% (w/v) Poloxamer 147, and 10% (w/v) HP-b-CD in saline.

≈ marks a conversion by molar mass, not a printed value. Like-named read-outs stand apart in the source and are kept apart here.

For `C[C@H](NC(=O)C(=O)Nc1ccccc1C(C)(C)C)C(=O)N[C@@H](CC(=O)O)C(=O)COc1c(F)c(F)cc(F)c1F` [IDN6556], at caspase-3, half-maximal inhibition (IC50) was put at 35 nM. In addition, the inhibition at 10 µM on Thrombin is 7%; on caspase-1, 59%; at Cathepsin-B, 0%. Moreover, the “% protection against staurosporine-induced cell death” value in data set [1] came out at 73%. In data set [2], this compound had a solubility at 16 h of 145 µM (≈ 82.6 µg/mL). Besides, the “% stable at 60 min MLM” value in “Microsomal stability” stood at 61%. In data set [3] (1 mg/kg IV), this compound gave a Vd of 11.8 L/kg. In data set [3] (1 mg/kg IV), this compound gave a clearance of 150 mL/min/kg. The k el in data set [3] (1 mg/kg IV, 5 mg/kg PO) was 0.000194 s⁻¹. In data set [3] (1 mg/kg IV, 5 mg/kg PO, read-out: Beta t1/2 (converted)), the half-life is 54 min. In addition, the AUC(0-inf) in data set [3] (1 mg/kg IV, read-out: AUC (0-inf) iv) amounted to 111 ng·h/mL; in data set [3] (5 mg/kg PO, read-out: AUC (0-inf) po) it was 99.1 ng·h/mL. In data set [3] (5 mg/kg PO), this compound registered a Cmax of 113 ng/mL. Also, the Tmax in data set [3] (5 mg/kg PO) came out at 30 min. Moreover, the bioavailability in data set [3] (5 mg/kg PO vs 1 mg/kg IV, read-out: F (oral bioavailability)) was determined as 17.9%.

The IC50 is the concentration at which inhibition is half-maximal. As usually defined, the inhibition is the relative decrease from the control value, in per cent. One may read the solubility as the concentration that dissolves in the medium under given conditions. A lower solubility goes with little dissolved substance. For orientation: Vd means a proportionality between amount in the body and measured concentration, not a real space. Low readings indicate confinement near the circulation, high ones extensive tissue distribution. Broadly, the clearance is the volume of plasma or blood freed of the substance per unit of time. A low value points to a low capacity for elimination. Usually AUC(0-inf) stands for total exposure, with the tail of the curve extrapolated. Broadly, the Cmax is the highest concentration seen after dosing. The term Tmax denotes the time at which the peak concentration occurs. A word on the bioavailability: it is the share of a dose that reaches the circulation, judged against a reference dose that is usually intravenous.
